Laboratory results reported in patent publication US20200361871A1 (Enterprise Therapeutics Ltd., priority 2018, published 2020).
pEC50: −log10 of the molar value.

Target: human TMEM16A (TMEM16Aabc variant) (Homo sapiens, UniProt Q5XXA6, DEL476-501, form not given)
Assay: Automated whole-cell patch clamp (Qpatch) TMEM16A potentiator assay in FRT cells stably expressing human TMEM16A
Format: cell-based
Details: for % Potentiation @ 3.33 μM Avg: 3.33 μM solution of test compound, percentage increase of baseline TMEM16A current; for pEC50: calculated EC50, Qpatch TMEM16A current at +70 mV
In short: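 FRT cells stably expressing human TMEM16Aabc were recorded by automated whole-cell patch clamp, with intracellular Ca2+ buffered for ~EC20 activation, holding −70 mV and step to +70 mV at 0.05 Hz. Compound was applied cumulatively, 5 min per concentration. Peak current increase as % of baseline was fitted to give EC50 and maximum efficacy.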

Sequence of human TMEM16A (TMEM16Aabc variant) (Q5XXA6 with tags, fused parts or gaps DEL476-501): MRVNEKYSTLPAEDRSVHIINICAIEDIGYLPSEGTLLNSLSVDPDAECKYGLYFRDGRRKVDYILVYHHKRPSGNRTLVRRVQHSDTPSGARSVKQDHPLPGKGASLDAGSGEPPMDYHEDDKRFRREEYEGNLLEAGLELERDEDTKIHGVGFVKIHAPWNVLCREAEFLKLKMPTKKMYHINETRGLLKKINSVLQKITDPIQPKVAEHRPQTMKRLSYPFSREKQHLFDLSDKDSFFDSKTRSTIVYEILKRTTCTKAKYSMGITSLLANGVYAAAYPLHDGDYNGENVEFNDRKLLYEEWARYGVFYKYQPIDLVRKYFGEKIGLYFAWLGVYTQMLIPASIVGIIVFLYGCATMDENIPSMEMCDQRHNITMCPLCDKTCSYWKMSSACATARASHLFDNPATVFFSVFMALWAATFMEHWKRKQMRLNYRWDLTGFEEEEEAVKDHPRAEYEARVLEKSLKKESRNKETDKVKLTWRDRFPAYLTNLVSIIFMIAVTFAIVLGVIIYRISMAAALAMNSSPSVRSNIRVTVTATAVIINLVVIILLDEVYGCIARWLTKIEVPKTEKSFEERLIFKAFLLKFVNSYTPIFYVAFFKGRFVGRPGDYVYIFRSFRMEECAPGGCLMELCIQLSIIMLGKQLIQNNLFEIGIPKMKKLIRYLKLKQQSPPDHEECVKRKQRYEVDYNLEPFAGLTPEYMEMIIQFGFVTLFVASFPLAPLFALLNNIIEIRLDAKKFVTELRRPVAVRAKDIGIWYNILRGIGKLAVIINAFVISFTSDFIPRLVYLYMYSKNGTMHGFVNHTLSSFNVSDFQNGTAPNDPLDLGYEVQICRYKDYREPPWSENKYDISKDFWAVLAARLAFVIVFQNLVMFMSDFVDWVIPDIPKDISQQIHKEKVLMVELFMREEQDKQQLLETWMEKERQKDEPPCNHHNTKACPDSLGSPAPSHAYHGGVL

In the case of `C#CC(C)(C)NC(=O)c1cc(NC(=O)CC2OCCc3ccccc32)ccn1` (stereo not shown) [Example 5.33, N-(1,1-Dimethylprop-2-ynyl)-4-[(2-isochroman-1-ylacetyl)amino]pyridine-2-carboxamide], the “% Potentiation @ 3.33 μM Avg” value was 49%.
`C#CC(C)(C)NC(=O)c1cc(NC(=O)CC2CCC(F)(F)CC2)ccn1` [Example 5.34, 4-[[2-(4,4-Difluorocyclohexyl)acetyl]amino]-N-(1,1-dimethylprop-2-ynyl)pyridine-2-carboxamide] was tested, and the “% Potentiation @ 3.33 μM Avg” value was 185% and the pEC50 was 6.19.
`C#CC(C)(C)NC(=O)c1cc(NC(=O)Cc2ccc(C(F)(F)F)cc2)ccn1` [Example 5.35, N-(1,1-Dimethylprop-2-ynyl)-4-[[2-[4-(trifluoromethyl)phenyl]acetyl]amino]pyridine-2-carboxamide] was tested, and the “% Potentiation @ 3.33 μM Avg” value was 106% and the pEC50 was 6.74.
`C#CC(C)(C)NC(=O)c1cc(NC(=O)Cc2c[nH]nc2C(F)(F)F)ccn1` [Example 5.36, N-(1,1-Dimethylprop-2-ynyl)-4-[[2-[3-(trifluoromethyl)-1H-pyrazol-4-yl]acetyl]amino] pyridine-2-carboxamide] was tested, and the “% Potentiation @ 3.33 μM Avg” value was 44% and the pEC50 was 7.22.
With `C#CC(C)(C)NC(=O)c1cc(NC(=O)Cc2cccc(C(F)(F)F)c2)ccn1` [Example 5.37, N-(1,1-Dimethylprop-2-ynyl)-4-[[2-[3-(trifluoromethyl)phenyl]acetyl]amino]pyridine-2-carboxamide] the “% Potentiation @ 3.33 μM Avg” value was 117% and the pEC50 was 6.82.
In the case of `C#CC(C)(C)NC(=O)c1cc(NC(=O)Cc2ccccc2C(F)(F)F)ccn1` [Example 5.38, N-(1,1-Dimethylprop-2-ynyl)-4-[[2-[2-(trifluoromethyl)phenyl]acetyl]amino]pyridine-2-carboxamide], the “% Potentiation @ 3.33 μM Avg” value was 231% and the pEC50 was 6.82.
With `C#CC(C)(C)NC(=O)c1cc(NC(=O)CN2CCOc3ccccc32)ccn1` [Example 5.39, 4-[[2-(2,3-Dihydro-1,4-benzoxazin-4-yl)acetyl]amino]-N-(1,1-dimethylprop-2-ynyl)pyridine-2-carboxamide] the “% Potentiation @ 3.33 μM Avg” value was 147%.
In the case of `CC(C)(C)NC(=O)c1cc(NC(=O)Cc2cc(C#N)ccc2O)ccn1` [Example 6, N-tert-Butyl-4-[[2-(5-cyano-2-hydroxy-phenyl)acetyl]amino]pyridine-2-carboxamide], the “% Potentiation @ 3.33 μM Avg” value was 162% and the pEC50 was 5.94.
For `CC(C)(C)C(C)(C)NC(=O)c1cccc(NC(=O)Cc2cc(Cl)ccc2O)c1` [Example 7, 3-[[2-(5-Chloro-2-hydroxy-phenyl)acetyl]amino]-N-(1,1,2,2-tetramethylpropyl) benzamide], the “% Potentiation @ 3.33 μM Avg” value was 153% and the pEC50 was 6.19.
In the case of `CCCC(C)(C)NC(=O)c1cccc(NC(=O)Cc2cc(Cl)ccc2O)c1` [Example 7.1, 3-[[2-(5-Chloro-2-hydroxy-phenyl)acetyl]amino]-N-(1,1-dimethylbutyl)benzamide], the “% Potentiation @ 3.33 μM Avg” value was 241% and the pEC50 was 6.47.
In the case of `CCCC(C)(C)NC(=O)c1cc(NC(=O)Cc2cc(Cl)ccc2O)ccn1` [Example 7.2, 4-[[2-(5-Chloro-2-hydroxy-phenyl)acetyl]amino]-N-(1,1-dimethylbutyl)pyridine-2-carboxamide], the “% Potentiation @ 3.33 μM Avg” value was 203% and the pEC50 was 6.59.
For `O=C(Cc1cc(Cl)ccc1O)Nc1cccc(C(=O)NC2CCCCC2)c1` [Example 7.3, 3-[[2-(5-Chloro-2-hydroxy-phenyl)acetyl]amino]-N-cyclohexyl-benzamide], the “% Potentiation @ 3.33 μM Avg” value was 125% and the pEC50 was 6.70.
`O=C(Cc1cc(Cl)ccc1O)Nc1cccc(C(=O)NC2CCOCC2)c1` [Example 7.4, 3-[[2-(5-Chloro-2-hydroxy-phenyl)acetyl]amino]-N-tetrahydropyran-4-yl-benzamide] was tested, and the “% Potentiation @ 3.33 μM Avg” value was 52% and the pEC50 was 6.19.
In the case of `CC(C)C(C)(C)NC(=O)c1cccc(NC(=O)Cc2cc(Cl)ccc2O)c1` [Example 7.5, 3-[[2-(5-Chloro-2-hydroxy-phenyl)acetyl]amino]-N-(1,1,2-trimethylpropyl)benzamide], the “% Potentiation @ 3.33 μM Avg” value was 239% and the pEC50 was 6.55.
With `CC(C)C(C)(C)NC(=O)c1cc(NC(=O)Cc2cc(Cl)ccc2O)ccn1` [Example 7.6, 4-[[2-(5-Chloro-2-hydroxy-phenyl)acetyl]amino]-N-(1,1,2-trimethylpropyl)pyridine-2-carboxamide] the “% Potentiation @ 3.33 μM Avg” value was 285% and the pEC50 was 7.00.
`CC(C)NC(=O)c1cc(NC(=O)Cc2cc(Cl)ccc2O)ccn1` [Example 7.7, 4-[[2-(5-Chloro-2-hydroxy-phenyl)acetyl]amino]-N-isopropyl-pyridine-2-carboxamide] was tested, and the “% Potentiation @ 3.33 μM Avg” value was 234% and the pEC50 was 6.89.
With `CC1(NC(=O)c2cccc(NC(=O)Cc3cc(Cl)ccc3O)c2)CCOCC1` [Example 7.8, 3-[[2-(5-Chloro-2-hydroxy-phenyl)acetyl]amino]-N-(4-methyltetrahydropyran-4-yl)benzamide] the “% Potentiation @ 3.33 μM Avg” value was 231% and the pEC50 was 6.04.
With `CC1(NC(=O)c2cc(NC(=O)Cc3cc(Cl)ccc3O)ccn2)CCOCC1` [Example 7.9, 4-[[2-(5-Chloro-2-hydroxy-phenyl)acetyl]amino]-N-(4-methyltetrahydropyran-4-yl)pyridine-2-carboxamide] the “% Potentiation @ 3.33 μM Avg” value was 288% and the pEC50 was 6.64.
In the case of `CC1(NC(=O)c2cccc(NC(=O)Cc3cc(Cl)ccc3O)c2)CCC1` [Example 7.10, 3-[[2-(5-Chloro-2-hydroxy-phenyl)acetyl]amino]-N-(1-methylcyclobutyl)benzamide], the “% Potentiation @ 3.33 μM Avg” value was 218% and the pEC50 was 6.44.
For `O=C(Cc1cc(Cl)ccc1O)Nc1ccnc(C(=O)NC2CCOCC2)c1` [Example 7.11, 4-[[2-(5-Chloro-2-hydroxy-phenyl)acetyl]amino]-N-tetrahydropyran-4-yl-pyridine-2-carboxamide], the “% Potentiation @ 3.33 μM Avg” value was 167% and the pEC50 was 6.49.
For `O=C(Cc1cc(Cl)ccc1O)Nc1ccnc(C(=O)N[C@H]2CC[C@@H](O)CC2)c1` [Example 7.12, 4-[2-(5-Chloro-2-hydroxyphenyl)acetamido]-N-[(1s,4s)-4-hydroxycyclohexyl]pyridine-2-carboxamide], the “% Potentiation @ 3.33 μM Avg” value was 101% and the pEC50 was 5.68.
With `CCC(C)NC(=O)c1cc(NC(=O)Cc2cc(Cl)ccc2O)ccn1` (stereo not shown) [Example 7.13, 4-[[2-(5-Chloro-2-hydroxy-phenyl)acetyl]amino]-N-sec-butyl-pyridine-2-carboxamide] the “% Potentiation @ 3.33 μM Avg” value was 212% and the pEC50 was 7.05.
With `CC(C)(O)C(C)(C)NC(=O)c1cc(NC(=O)Cc2cc(Cl)ccc2O)ccn1` [Example 7.14, 4-[[2-(5-Chloro-2-hydroxy-phenyl)acetyl]amino]-N-(2-hydroxy-1,1,2-trimethyl-propyl)pyridine-2-carboxamide] the “% Potentiation @ 3.33 μM Avg” value was 225% and the pEC50 was 6.82.
In the case of `O=C(Cc1cc(Cl)ccc1O)Nc1ccnc(C(=O)NC23CC(C2)C3)c1` [Example 7.15, N-(3-Bicyclo[1.1.1]pentanyl)-4-[[2-(5-chloro-2-hydroxy-phenyl)acetyl]amino]pyridine-2-carboxamide], the “% Potentiation @ 3.33 μM Avg” value was 230% and the pEC50 was 7.30.
`N#CC1(NC(=O)c2cc(NC(=O)Cc3cc(Cl)ccc3O)ccn2)CCC1` [Example 7.16, 4-[[2-(5-Chloro-2-hydroxy-phenyl)acetyl]amino]-N-(1-cyanocyclobutyl)pyridine-2-carboxamide] was tested, and the “% Potentiation @ 3.33 μM Avg” value was 354% and the pEC50 was 6.89.
`CC(C)(C)OC(=O)N1CCCC(NC(=O)c2cccc(NC(=O)Cc3cc(Cl)ccc3O)c2)C1` (stereo not shown) [Example 8, tert-Butyl-3-[[3-[[2-(5-chloro-2-hydroxy-phenyl)acetyl]amino]benzoyl]amino] piperidine-1-carboxylate] was tested, and the “% Potentiation @ 3.33 μM Avg” value was 88% and the pEC50 was 5.52.
With `CC(C)(C)OC(=O)N1CCCC(NC(=O)c2cc(NC(=O)Cc3cc(Cl)ccc3O)ccn2)C1` (stereo not shown) [Example 8.1, tert-Butyl-3-[[4-[[2-(5-chloro-2-hydroxy-phenyl)acetyl]amino]pyridine-2-carbonyl]amino]piperidine-1-carboxylate] the “% Potentiation @ 3.33 μM Avg” value was 155% and the pEC50 was 6.23.
With `CC1(NC(=O)c2cccc(NC(=O)Cc3cc(Cl)ccc3O)c2)CCN(C(=O)OC(C)(C)C)CC1` [Example 8.2, tert-Butyl 4-[[3-[[2-(5-chloro-2-hydroxy-phenyl)acetyl]amino]benzoyl]amino]-4-methyl-piperidine-1-carboxylate] the “% Potentiation @ 3.33 μM Avg” value was 169% and the pEC50 was 5.71.
For `CC(C)(C)OC(=O)N1C[C@@H]2[C@H](C1)[C@H]2NC(=O)c1cc(NC(=O)Cc2cc(Cl)ccc2O)ccn1` [Example 8.3, tert-Butyl (1r,5s,6s)-6-{4-[2-(5-chloro-2-hydroxyphenyl)acetamido]pyridine-2-amido}-3-azabicyclo[3.1.0]hexane-3-carboxylate], the “% Potentiation @ 3.33 μM Avg” value was 238% and the pEC50 was 6.64.
In the case of `CC(C)(C)NC(=O)c1ccc(F)c(NC(=O)Cc2cc(Cl)ccc2O)c1` [Example 9, N-tert-Butyl-3-[[2-(5-chloro-2-hydroxy-phenyl)acetyl]amino]-4-fluoro-benzamide], the “% Potentiation @ 3.33 μM Avg” value was 149% and the pEC50 was 6.64.
For `Cc1cc(NC(=O)Cc2cc(Cl)ccc2O)cc(C(=O)NC(C)(C)C)c1` [Example 9.1, N-tert-Butyl-3-[[2-(5-chloro-2-hydroxy-phenyl)acetyl]amino]-5-methyl-benzamide], the “% Potentiation @ 3.33 μM Avg” value was 77% and the pEC50 was 5.34.
`CCC(C)(C)NC(=O)c1cc(NC(=O)Cc2cc(Cl)ccc2O)ccn1` [Example 9.2, 4-[[2-(5-Chloro-2-hydroxy-phenyl)acetyl]amino]-N-(1,1-dimethylpropyl)pyridine-2-carboxamide] was tested, and the “% Potentiation @ 3.33 μM Avg” value was 196% and the pEC50 was 6.72.
With `CC(C)(C)NC(=O)c1cc(NC(=O)Cc2cc(C(C)(C)C)ccc2O)ccn1` [Example 10, N-tert-Butyl-4-[[2-(5-tert-butyl-2-hydroxy-phenyl)acetyl]amino]pyridine-2-carboxamide] the “% Potentiation @ 3.33 μM Avg” value was 250% and the pEC50 was 6.66.
